Assay results as given in PubChem BioAssay (NCI).
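Growth conditions: 96-well plates. Treatment: test compound, 48 hours, 5 concentrations. Analysis: linear interpolation between bracketing concentrations; unreached endpoints set to highest concentration. The concentration for full growth arrest is given as TGI.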

Assays:
Experiment in all cases: growth of human tumour cells (NCI), 48 h
DMS 273 small cell lung = system: DMS 273 small cell lung
LXFL 529 NSCLC = system: LXFL 529 NSCLC
M19-MEL melanoma = system: M19-MEL melanoma
NCI-H23 lung = system: NCI-H23 lung
OVCAR-5 ovarian = system: OVCAR-5 ovarian
SN12C renal = system: SN12C renal
IGROV1 ovarian = system: IGROV1 ovarian
K-562 leukemia = system: K-562 leukemia
MOLT-4 leukemia = system: MOLT-4 leukemia
SK-OV-3 ovarian = system: SK-OV-3 ovarian
SR leukemia = system: SR leukemia
PC-3 prostate = system: PC-3 prostate

SMILES	TGI (DMS 273 small cell lung) [µM]	TGI (LXFL 529 NSCLC) [µM]	TGI (M19-MEL melanoma) [µM]	TGI (NCI-H23 lung) [µM]	TGI (OVCAR-5 ovarian) [µM]	TGI (SN12C renal) [µM]	TGI (IGROV1 ovarian) [µM]	TGI (K-562 leukemia) [µM]	TGI (MOLT-4 leukemia) [µM]	TGI (SK-OV-3 ovarian) [µM]	TGI (SR leukemia) [µM]	TGI (PC-3 prostate) [µM]
CCc1cc(C)cc2[n+]1CC=C2	6.55	79.2	52.4	53.8	56.6	78.6						
COc1ccc2c(c1)Oc1cc(O)ccc1[C@H]2c1ccccc1C(=O)NC(C)c1ccccc1 (some centres undefined)	28.4	28.7	29.4	32.5	29.4	31.6	31.5	> 100	64.8	39.3		
COc1cccc2c1C(=O)c1c(O)c3c(c(O)c1C2=O)C[C@@](O)(C(C)=O)CC3S(=O)(=O)O (some centres undefined)	> 100	> 100	> 100	> 100	> 100	> 100	> 100	> 100	> 100	> 100	> 100	
Nc1nc(NCCOCP(=O)(O)O)c([N+](=O)[O-])c(=O)[nH]1	> 100	> 100	> 100	> 100		> 100	> 100	> 100	> 100	> 100	> 100	
CN(C)Cc1c(O)ccc2c1c1c(n2C)C(=O)c2ccccc2C1=O				27.4	74.4	> 100	85.2	> 100	> 100	> 100	> 100	32.7
COc1cc(C2S/C(=C/c3ccccc3)C(=O)N2Cc2ccccc2)cc(OC)c1OC (centres undefined)				> 100	> 100	> 100	> 100	> 100	> 100	> 100	57.2	> 100
Cc1ccc(S(=O)(=O)N2CCC[C@@H]2C(=O)O[C@@H]2CCC3CC=CC32)cc1 (some centres undefined)				> 100	> 100	> 100	> 100	> 100	> 100	48.3	61	69.6
COC(=O)[C@H](CC(C)C)NC(=O)[C@H](Cc1ccccc1)N1CC2C=CC1C2 (some centres undefined)	> 100	> 100	> 100	> 100	> 100	> 100	> 100	> 100	> 100	> 100		
COc1ccc2nc3c([N+](=O)[O-])ccc(NCCN(C)C)c3c(N)c2c1				3.73	3.09	2.76	2.74	0.607	2.46	3.13	2.9	2.81
CC(C)OP(=S)(NC(=S)c1ccccc1)OC(C)C	> 100	> 100		> 100	> 100	> 100	> 100	> 100	> 100	> 100		
COC1OCC(O)C(NC(=O)N(C)N=O)C1O (centres undefined)	> 100		> 100	> 100	> 100	> 100	> 100	> 100	> 100	> 100		
COc1cccc2c1OC1Sc3ccccc3-c3nn(-c4ccccc4)c-2c31 (centres undefined)	> 100	> 100	> 100	> 100	> 100		> 100	> 100	> 100	> 100		
O=C(Cc1nc2ccc(C(=O)c3ccccc3)cc2[nH]c1=O)C(=O)Nc1nc2ccccc2[nH]1	> 100	> 100	> 100	> 100		> 100	> 100		> 100	> 100	> 100	
CC(=O)OCC1OC(n2cnc3nc(Br)[nH]c(=O)c32)C(OC(C)=O)C1OC(C)=O (centres undefined)				> 100	> 100	> 100	> 100	> 100	> 100	> 100	> 100	> 100
C=C(C)[C@@H](O)[C@H](O)C[C@H](C)C1CC[C@]2(C)C1=CC[C@@H]1[C@@]3(C)CC[C@@H](OC(C)=O)C(C)(C)[C@@H]3C[C@@H](OC3OC(COC(C)=O)C(O)C(O)C3O)[C@]12C (some centres undefined)				16.1	4.43	11.3	6.4	5.21	4.5	10.4	4.2	6.59
CC(C)NC(=O)OCc1c(COC(=O)NC(C)C)c(-c2ccc[n+](COC(=O)Cc3ccccc3)c2)n2c1CCC2				69.6	> 100	> 100	> 100	> 100	> 100	> 100	> 100	> 100

SMILES	TGI (DMS 273 small cell lung) [µM]	TGI (LXFL 529 NSCLC) [µM]	TGI (M19-MEL melanoma) [µM]	TGI (NCI-H23 lung) [µM]	TGI (OVCAR-5 ovarian) [µM]	TGI (SN12C renal) [µM]	TGI (IGROV1 ovarian) [µM]	TGI (K-562 leukemia) [µM]	TGI (MOLT-4 leukemia) [µM]	TGI (SK-OV-3 ovarian) [µM]	TGI (SR leukemia) [µM]	TGI (PC-3 prostate) [µM]
Cc1c(Cc2ccccc2)n(C(C)OCCN(OC(=O)Oc2ccccc2)C(=O)Oc2ccccc2)c(=O)[nH]c1=O (centres undefined)				31	31.6	40.5	31.7	93.5	46.3	46.3	> 100	58.9
CNC(=O)N(CCC#N)CCN(C(=O)NC)c1ccccc1				> 100	> 100	> 100	> 100	> 100	> 100	> 100	> 100	> 100
O=C1c2cc(I)ccc2N2CCN=C2N1Cc1ccccc1				> 100	> 100	> 100	> 100	> 100	> 100	> 100	> 100	> 100
CC(C)(C)COC(=O)C(C)(C)NC(=O)C(CC(=O)OCc1ccccc1)NC(=O)OCc1ccccc1 (centres undefined)				> 100	93.5	75.7	> 100	> 100	> 100	> 100	> 100	> 100
O=C1C=C(Nc2ccccc2C(=O)CC(=O)C(=O)Nc2ccc(Cl)cc2)c2ccccc2C1=O	31.1	42.6	4.41	29.6	35.6	26	> 88.5	40.9	> 38.5	76.1	> 100	
Cn1c2ccc(F)cc2c2ccc3c(c21)C(=O)C=CC3=O				31.4	> 73.4	31	39	> 36.4	13.2	> 100	> 20.2	19.3
CC1=NN(C(=O)Cc2ccccc2)C(=O)/C1=C\c1ccc([N+](=O)[O-])cc1		> 100	> 100	> 100	> 100	> 100	> 100	> 100	> 100	> 100		
c1coc(-c2nccc3c2[nH]c2ccccc23)c1				> 100	> 100	> 100	> 100	> 100	> 100	> 100	> 100	> 100
Nn1c(Nc2ccc(S(N)(=O)=O)cc2)nnc(/C=C/c2c(O)ccc3ccccc23)c1=O				22.4	56.1	27.3	0.942	34.5	0.805	88.5	25.1	> 100
CC(C)(C)N/N=C(\C(=O)Nc1cccc(Cl)c1)C1C(=O)Nc2ccccc2S1=O (centres undefined)	> 100	> 100	> 100	> 100		> 100	> 100		> 100	> 100	> 100	
COc1ccc2c(c1)CC[C@@H]1C2CC[C@]2(C)C(=O)N(CCN(C)C)C(=O)CC12 (some centres undefined)				> 100	> 100	> 100	> 100	> 100	> 100	> 100	> 100	> 100
CSc1ncc2c(n1)-c1ccccc1OC2N1CCOCC1 (centres undefined)				> 100	> 100	> 100	> 100	> 100	> 100	> 100	> 100	> 100
Cc1cc2nc3c(C#N)c4c(c(Nc5ccc(F)cc5)n3c2cc1C)CCC4				> 100	> 100	> 100	> 100	> 100	> 100	> 100	> 100	> 100
CC(=O)c1ccccc1NC(=O)C(=O)C(C(=O)c1ccc2ccccc2c1)C1OC(=O)c2ccccc21 (centres undefined)	44.5	26.3	22.8	26.8	52.9	37.9	52.6	70.3	> 100	> 100		
Clc1cc(-c2ccccc2)nc(Nc2nc3ccccc3[nH]2)n1				56	> 100	63	33.2	85.3	> 100	> 100	10.5	> 100
